Marks after values point to notes of the source that are not given here. [I] = hypoxanthine (inosine); d = 2'-deoxy (DNA); m = 2'-O-methyl
Experiments:
[1] = High dosages of IRPs in mice (weight, histology); assay type: in vivo, BALB/c mice; details: 100 mg/kg
Method: To test the activity of IRPs at high dosages in mice, IRPs or a control (saline) were subcutaneously administered to BALB/c mice at a dosage of 4 mg/kg, 20 mg/kg, 50 mg/kg, or 100 mg/kg on days 1, 4, 7, and 10 (n=5 per group). Mice were weighed prior to administration and on days 2, 4, 7, 9, and 11. Serum cytokines were assayed at two hours post the first and third injections and 24 hours post the fourth injection. Organs were harvested at the end of the study, and organ weights and tissues levels of the oligonucleotides were determined. In addition, histological evaluation of the liver, kidney, and heart was performed.
Mice were weighed prior to administration and on days 1, 3, 4, 6, 7, and 9. Organs were harvested at the end of the study, and organ weights and tissues levels of the oligonucleotides were determined. In addition, histological evaluation of the liver, kidney, and heart was performed.

[2] = Monomer and tetramer formation of IRPs, size-exclusion HPLC; assay type: physicochemical; details: 100 mg/mL in PBS and 0.5M KCl, room temperature, five weeks
Method: Solutions were prepared of the by mixing 100 mg/mL of the IRP sequences in PBS and 0.5M KCl and storing at room temperature for three to five weeks. The solutions were subsequently analyzed by size-exclusion HPLC.

[3] = tested on: human B-cells; assay: Human B-cells cultured in the presence of IRPs, IL-6
Method: For the human B-cell assay, B-cells were purified from total blood cells obtained from healthy donors using magnetic beads (CD19 positive). Cells were resuspended in fresh medium (RPMI 1640 with 10% fetal calf serum, 50 units/mL penicillin, 50 μg/mL streptomycin, and 2 mM glutamine). At 48 hours, supernatants were collected and cytokine levels, IL-6, were measured using immunoassay.
To further investigate the effect of IRPs on B-cell stimulatory activity, a wide variety of IRP sequences were assayed for IL-6, along with positive and negative controls. The experiment was performed as described in Example 1 using doses of IRP of either 4.0 μM or 2.0 μM. The positive control was an immunostimulatory sequence (ISS) with SEQ ID NO:157. […] The results are presented as the average normalized IL-6 response over several experiments.

[4] = High dosages of IRPs in rats (weight, deaths, histology); assay type: in vivo, Sprague Dawley rats; details: rat
Method: To test the activity of IRPs at high dosages in rats, IRPs (SEQ ID NO:42 and SEQ ID NO:109) or a control (PBS) were subcutaneously administered to 8-9 weeks old, […], 3, 6, and 9 (n=6 per group). Rats were weighed prior to administration and on days 1, 3, 4, 6, 7, and 9. Organs were harvested at the end of the study, and organ weights and tissues levels of the oligonucleotides were determined. In addition, histolocial evaluation of the liver, kidney, and heart was performed.
Rats were weighed prior to administration and on days 1, 3, 6, 7, and 9. Organs were harvested at the end of the study, and organ weights and tissues levels of the oligonucleotides were determined. In addition, histological evaluation of the liver, kidney, and heart was performed.

[5] = Experiment # 3, Max Conc 4.0 uM
[6] = Experiment # 11, Max Conc 2.0 uM
[7] = Experiment # 4, Max Conc 4.0 uM
[8] = Experiment # 7, Max Conc 4.0 uM
[9] = Experiment # 5, Max Conc 4.0 uM
[10] = Experiment # 6, Max Conc 4.0 uM
[11] = Experiment # 8, Max Conc 2.0 uM
[12] = Experiment # 10, Max Conc 2.0 uM

5′-TGC TGC TCC TGG AGI GGT TG-HEG-T-3′ (DNA TGCTGCTCCTGGAGNGGTTGNT; inosine, internal HEG spacer, chemistry not fully specified) [SEQ ID NO:144]
Heart: Chronic inflammation, number of animals [1]: 1
Heart: Mineralization, number of animals [1]: 2
Heart: Chronic inflammation, mean severity score ([1]; 0 = no change to 4 = severe): 3.0
Heart: Mineralization, mean severity score ([1]; 0 = no change to 4 = severe): 2.5
Liver: Liver changes, mean severity score ([1]; 0 = no change to 4 = severe): 2.0
Liver: Mixed cell infiltration, mean severity score ([1]; 0 = no change to 4 = severe): 2.0
Right Kidney: Tubular changes, mean severity score ([1]; 0 = no change to 4 = severe): 2.0
Liver: Liver changes, number of animals ([1]; 6 animals): 6
Liver: Mixed cell infiltration, number of animals ([1]; 6 animals): 6
Liver: No significan changes, number of animals ([1]; 6 animals): 0
Right Kidney: No significant changes, number of animals ([1]; 6 animals): 0
Right Kidney: Tubular basophilia, number of animals ([1]; 6 animals): 0
Right Kidney: Tubular changes, number of animals ([1]; 6 animals): 6
Heart: No significant changes, number of animals ([1]; tissue missing in two animals): 1**
fraction in monomer form [2]: 100%
Normalized IL-6 Response (Percentage of Positive Control) [3, 5]: 10%
B-cell stimulatory activity ([3]; FIG. 1C, percent IL-6 from CpG-ISS): low B-cell stimulatory activity
Liver: hepatocellular cytoplasmic vacuolation ([4]; 10 mg/kg): hepatocellular cytoplasmic vacuolation
Heart: cellular vacuolation ([4]; 90 mg/kg): present in some animals
Kidney: tubular basophilia ([4]; 90 mg/kg): occurred
Liver: hepatocellular cytoplasmic vacuolation ([4]; 90 mg/kg): hepatocellular cytoplasmic vacuolation
Liver: hepatocellular necrosis ([4]; 90 mg/kg): hepatocellular necrosis

5′-UGC TGC TCC TTG AGI GGT TGT (DNA UGCTGCTCCTTGAGNGGTTGT; sugars from the 5' end m3 d18, [I] at 15, backbone not given here) [SEQ ID NO:126]
Normalized IL-6 Response (Percentage of Positive Control) [3, 6]: 37%

5′-TGC TGC TCC TTG AGI GGT TGT TTG T-3′ (DNA TGCTGCTCCTTGAGNGGTTGTTTGT; DNA, [I] at 15, backbone and methylation of C not given here) [SEQ ID NO:62]
Normalized IL-6 Response (Percentage of Positive Control) [3, 7]: 49%
Normalized IL-6 Response (Percentage of Positive Control) [3, 8]: 49%

5′-TGCTCCTGGAGGGGTTGTAAGTTTGT-3′ (DNA TGCTCCTGGAGGGGTTGTAAGTTTGT; DNA, backbone and methylation of C not given here; further chemistry not fully specified) [SEQ ID NO:68]
Normalized IL-6 Response (Percentage of Positive Control) [3, 9]: 12%
Normalized IL-6 Response (Percentage of Positive Control) [3, 10]: 6%

5′-UGC TTG TCC TGG AGI GGT GTT GT (DNA UGCTTGTCCTGGAGNGGTGTTGT; sugars from the 5' end m3 d20, [I] at 15, backbone not given here) [SEQ ID NO:124]
Normalized IL-6 Response (Percentage of Positive Control) [3, 11]: 33%

5′-UGC HEG TCC TGG AGI GGT GTT GT (DNA NNNNTCCTGGAGNGGTGTTGT; HEG spacer, inosine, chemistry not fully specified) [SEQ ID NO:77]
Normalized IL-6 Response (Percentage of Positive Control) [3, 5]: 24%

5′-UGC TGC TCC TTG AGI GGT TGT AAG T (DNA UGCTGCTCCTTGAGNGGTTGTAAGT; sugars from the 5' end m3 d22, [I] at 15, backbone not given here) [SEQ ID NO:129]
Normalized IL-6 Response (Percentage of Positive Control) [3, 12]: 51%

5′-UGCTGCTCCTTGAGGGGTTGTTTGT (DNA NNNTGCTCCTTGAGGGGTTGTTTGT; listed as DNA, chemistry not fully specified) [SEQ ID NO:107]
Normalized IL-6 Response (Percentage of Positive Control) [3, 7]: 43%
Normalized IL-6 Response (Percentage of Positive Control) [3, 8]: 43%

5′-UGC TTG TCC TGG AGI GGT TG-HEG-T (DNA NNNTTGTCCTGGAGNGGTTGNT; inosine, internal HEG spacer, chemistry not fully specified) [SEQ ID NO:142]
Normalized IL-6 Response (Percentage of Positive Control) ([3]; Experiment # 2, Max Conc 4.0 uM): 35%
Normalized IL-6 Response (Percentage of Positive Control) [3, 11]: 22%

5′-UGC TGC TCC TTG AGI GGT GTT GT (DNA UGCTGCTCCTTGAGNGGTGTTGT; sugars from the 5' end m3 d20, [I] at 15, backbone not given here) [SEQ ID NO:180]
Normalized IL-6 Response (Percentage of Positive Control) [3, 12]: 46%

5′-UGC TGC TCC TGG AGI GGT GTT GT (DNA UGCTGCTCCTGGAGNGGTGTTGT; sugars from the 5' end m3 d20, [I] at 15, backbone not given here) [SEQ ID NO:182]
Normalized IL-6 Response (Percentage of Positive Control) [3, 12]: 53%

5′-UGC TCC TGG AGG GGT TGT (DNA NNNTCCTGGAGGGGTTGT; listed as DNA, chemistry not fully specified) [SEQ ID NO:83]
Normalized IL-6 Response (Percentage of Positive Control) [3, 7]: 6%
Normalized IL-6 Response (Percentage of Positive Control) [3, 8]: 6%

5′-TGCTGCTCCTGGAGGGGTTGTTTGT-3′ (DNA TGCTGCTCCTGGAGGGGTTGTTTGT; DNA, backbone and methylation of C not given here; further chemistry not fully specified) [SEQ ID NO:57]
Normalized IL-6 Response (Percentage of Positive Control) [3, 9]: 22%
Normalized IL-6 Response (Percentage of Positive Control) [3, 10]: 17%

5′-TGCTTGTCCTGGAGGGGTTGT (DNA TGCTTGTCCTGGAGGGTTGT; listed as DNA, chemistry not fully specified) [SEQ ID NO:204]
Normalized IL-6 Response (Percentage of Positive Control) [3, 7]: 9%

5′-TGC TGC TCC TTG AGI GGT TGT AAG T (DNA TGCTGCTCCTTGAGNGGTTGTAAGT; DNA, [I] at 15, backbone not given here) [SEQ ID NO:181]
Normalized IL-6 Response (Percentage of Positive Control) [3, 6]: 38%

5′-UGC TGC TCC TGG AGI GGT TGT (DNA UGCTGCTCCTGGAGNGGTTGT; sugars from the 5' end m3 d18, [I] at 15, backbone not given here) [SEQ ID NO:125]
Normalized IL-6 Response (Percentage of Positive Control) [3, 6]: 38%

5′-TGC TGC TCC TGG AGI GGT TGT-3′ (DNA TGCTGCTCCTGGAGNGGTTGT; DNA, [I] at 15, backbone and methylation of C not given here) [SEQ ID NO:66]
Normalized IL-6 Response (Percentage of Positive Control) ([3]; Experiment # 1, Max Conc 4.0 uM): 20%
Normalized IL-6 Response (Percentage of Positive Control) ([3]; Experiment # 9, Max Conc 2.0 uM): 18%
